We go through ten compounds from ChEMBL document CHEMBL4312037, “Fragment hopping-based discovery of novel sulfinylacetamide-diarylpyrimidines (DAPYs) as HIV-1 nonnucleoside reverse transcriptase inhibitors” (Eur J Med Chem, 2020).

Bounds are passed on as bounds.

Data set [1] has as its system Human immunodeficiency virus 1. In words: Antiviral activity against HIV1 3B harbouring NNRTI K103N mutant infected in human MT4 cells assessed as virus-induced cytopathic effect incubated for 5 days by MTT assay. The format is functional, organism-based. Particulars: Human immunodeficiency virus 1, 3B, MT4, 120 h.
Data set [2] is described as follows: Cytotoxicity against human MT4 cells assessed as reduction in cell viability incubated for 5 days by MTT assay. The format is cell-based. Background: Tetrazolium dyes change colour on reduction, which living cells bring about.
For data set [3], the system named is Human immunodeficiency virus 1. In words: Antiviral activity against HIV1 3B infected in human MT4 cells assessed as virus-induced cytopathic effect incubated for 5 days by MTT assay. Particulars: Human immunodeficiency virus 1, 3B, MT4, 120 h. The format is functional, organism-based. (In general: Protection from cytopathic effect is a common read-out in antiviral testing.)

Data set [4] has as its target Human immunodeficiency virus type 1 reverse transcriptase (Human immunodeficiency virus 1, UniProt Q72547).
Description: Inhibition of recombinant wild type HIV-1 His-tagged reverse transcriptase p66/p51 expressed in Escherichia coli JM109 using poly(rA)/oligo(dT)16 as template/primer incubated for 40 mins by pico-green based spectrofluorometric analysis
The nature of data set [5]: in vitro. Particulars: human, MT4 cells; MT4 cells infected with HIV1 3B.
Description: Selectivity index, ratio of CC50 for cytotoxicity against human MT4 cells to EC50 for antiviral activity against HIV1 3B infected in human MT4 cells
A short description of data set [6]: in vitro. Particulars: human, MT4 cells; MT4 cells infected with HIV1 3B K103N mutant.
Description: Selectivity index, ratio of CC50 for cytotoxicity against human MT4 cells to EC50 for antiviral activity against HIV1 3B harbouring NNRTI K103N mutant infected in human MT4 cells
The nature of data set [7]: Stability in rat liver microsomes assessed as intrinsic clearance. The format is ADME, Microsome. Conditions: read-out: CLH.
Data set [8] can be described thus: Stability in human liver microsomes assessed as half life. In kind it is ADME, Microsome. (Liver microsomes are a subcellular fraction often used to study metabolism.)
Data set [9] is described as follows: Stability in rat liver microsomes assessed as half life. In kind it is ADME, Microsome.
The nature of data set [10]: Stability in human liver microsomes assessed as intrinsic clearance. In kind it is ADME, Microsome. Particulars: read-out: CLH.
Data set [11] relates to Human immunodeficiency virus 1. In words: Antiviral activity against HIV1 harbouring NNRTI K103N. The format is functional, organism-based.
Data set [12] deals with Human immunodeficiency virus 1. The data set can be described thus: Antiviral activity against HIV1. In kind it is functional, organism-based.

As for `COc1cc2nc(Nc3ccc(C#N)cc3)nc(Nc3c(C)cc(/C=C/C#N)cc3C)c2cc1OC`, the figures for the EC50 in data set [1] and in data set [3] were 10.4 nM and 12.7 nM, respectively. Further, in [2], the CC50 (commonly the concentration at which the toxic effect on the cells reaches its halfway point) at 120 h turned out to be 10200 nM. Further, it took 550 nM to reach half-maximal inhibition in [4] (IC50). In addition, the selectivity ratio in data set [5] stood at 806; in [6], 986.

As for `COc1cc2nc([S+]([O-])CC(=O)Nc3ccc(C#N)cc3)nc(Nc3c(C)cc(/C=C/C#N)cc3C)c2cc1OC` (configuration not stated), the 50% effective concentration (EC50) (in general, the concentration needed to bring the measured effect to its halfway point) came to 10.4 nM in data set [1] and 24.9 nM in data set [3]. Besides, in data set [2], the CC50 at 120 h was > 221000 nM. Further, the results for the microsomal CLint in data set [7] and in data set [10] were 8.58 µL/min/mg and 8.45 µL/min/mg, respectively. Also, the half-life – broadly, the time needed for the level to fall by half in the phase considered – in [8] turned out to be 1.37 h; in data set [9], 1.35 h. Further, the IC50 (in general, the concentration needed to halve the response being measured) in data set [4] worked out at 5.7 nM. The selectivity ratio was > 8870 in [5] and > 21200 in data set [6].

For `COc1cc2nc(SCC(=O)Nc3ccc([N+](=O)[O-])cc3)nc(Nc3c(C)cc(/C=C/C#N)cc3C)c2cc1OC`, the results for the EC50 in data set [1] and in data set [3] were 358 nM and 749 nM, respectively. In addition, in [2], the CC50 at 120 h was > 219000 nM. In [4], this compound had a 50% inhibitory concentration (IC50) of 4000 nM. Besides, the figures for the selectivity ratio in data set [5] and in data set [6] were > 292 and > 612, respectively.

In the case of `COc1cc2nc([S+]([O-])CC(=O)Nc3ccc([N+](=O)[O-])cc3)nc(Nc3c(C)cc(/C=C/C#N)cc3C)c2cc1OC` (configuration not stated), the EC50 worked out at 15.7 nM in [1] and 41.2 nM in [3]. For the same compound, the CC50 at 120 h in data set [2] is 189000 nM. Besides, the concentration for half-maximal inhibition (IC50) in [4] was determined as 11 nM. The selectivity ratio in data set [5] turned out to be 4590; in data set [6], 12100.

With `COc1cc2nc(SCC(=O)Nc3ccc(C#N)cc3)nc(Nc3c(C)cc(/C=C/C#N)cc3C)c2cc1OC`, the EC50 worked out at 201 nM in data set [1] and 304 nM in data set [3]. In addition, in data set [2], the half-maximal cytotoxic concentration (CC50) at 120 h was > 227000 nM. Further, the concentration for half-maximal inhibition (IC50) in data set [4] worked out at 3630 nM. The selectivity ratio in data set [5] is > 746; in [6] it was > 1130.

Consider `O=C(CSc1nnc(Br)n1-c1ccc(C2CC2)c2ccccc12)Nc1ccc(C(=O)O)cc1Cl`, for which the EC50 was < 3 nM in data set [11] and 2.85 nM in [12].

For the compound `COc1cc2nc(Nc3ccc(C#N)cc3)nc(Nc3c(Cl)cc(/C=C/C#N)cc3Cl)c2cc1OC`, the results for the EC50 in [1] and in data set [3] were 6.3 nM and 5.3 nM, respectively. Further, in data set [2], the CC50 at 120 h worked out at 9920 nM. Half-maximal inhibition in [4] (IC50) required 46 nM. Besides, the selectivity ratio in [5] came out at 1890; in data set [6] it was 1580.

For the compound `COc1ccc(NC(=O)CSc2nc(Nc3c(C)cc(/C=C/C#N)cc3C)c3cc(OC)c(OC)cc3n2)cc1`, the half-maximal effective concentration (EC50) in [1] is 745 nM; in [3], 2750 nM. In [2], the CC50 at 120 h was > 225000 nM. In addition, the values for the selectivity ratio in [5] and in [6] were > 82 and > 302, respectively.

In the case of `COc1cc2nc(SCC(=O)Nc3ccc(F)cc3)nc(Nc3c(C)cc(/C=C/C#N)cc3C)c2cc1OC`, the values for the concentration for a half-maximal effect (EC50) in data set [1] and in data set [3] were 942 nM and 2280 nM, respectively. Moreover, in data set [2], the CC50 at 120 h was ≥ 150000 nM. For the same compound, the results for the selectivity ratio in [5] and in data set [6] were ≥ 66 and ≥ 159, respectively.

Turning to `COc1cc2nc([S+]([O-])CC(=O)Nc3ccc(C(F)(F)F)cc3)nc(Nc3c(Cl)cc(/C=C/C#N)cc3Cl)c2cc1OC` (configuration not stated), the EC50 in data set [1] came out at 88.9 nM; in data set [3] it was 227 nM. For the same compound, in data set [2], the CC50 at 120 h amounted to 22000 nM. Moreover, the selectivity ratio came to 97 in data set [5] and 247 in data set [6].
